Test results published in the kinase profiling compilation of Christmann-Franck et al. (2016).

Experiments:
Experiment in all cases: KINOMEscan competition binding
Settings in all cases: compound 10.0 µM
PIP5K1A (human) = PIP5K1A (human) (UniProt Q99755)
DYRK1B (human) = DYRK1B (human) (UniProt Q9Y463)
DSTYK (human) = DSTYK (human) (UniProt Q6XUX3)
MAPK15 (human) = MAPK15 (human) (UniProt Q8TD08)
CDK9 (human) = CDK9 (human) (UniProt P50750)
IRAK4 (human) = IRAK4 (human) (UniProt Q9NWZ3)
OXSR1 (human) = OXSR1 (human) (UniProt O95747)
DDR1 (human) = DDR1 (human) (UniProt Q08345)
WEE2 (human) = WEE2 (human) (UniProt P0C1S8)
PDGFRB (human) = PDGFRB (human) (UniProt P09619)
Chain of PDGFRB (human) (P09619 whole entry, looked up): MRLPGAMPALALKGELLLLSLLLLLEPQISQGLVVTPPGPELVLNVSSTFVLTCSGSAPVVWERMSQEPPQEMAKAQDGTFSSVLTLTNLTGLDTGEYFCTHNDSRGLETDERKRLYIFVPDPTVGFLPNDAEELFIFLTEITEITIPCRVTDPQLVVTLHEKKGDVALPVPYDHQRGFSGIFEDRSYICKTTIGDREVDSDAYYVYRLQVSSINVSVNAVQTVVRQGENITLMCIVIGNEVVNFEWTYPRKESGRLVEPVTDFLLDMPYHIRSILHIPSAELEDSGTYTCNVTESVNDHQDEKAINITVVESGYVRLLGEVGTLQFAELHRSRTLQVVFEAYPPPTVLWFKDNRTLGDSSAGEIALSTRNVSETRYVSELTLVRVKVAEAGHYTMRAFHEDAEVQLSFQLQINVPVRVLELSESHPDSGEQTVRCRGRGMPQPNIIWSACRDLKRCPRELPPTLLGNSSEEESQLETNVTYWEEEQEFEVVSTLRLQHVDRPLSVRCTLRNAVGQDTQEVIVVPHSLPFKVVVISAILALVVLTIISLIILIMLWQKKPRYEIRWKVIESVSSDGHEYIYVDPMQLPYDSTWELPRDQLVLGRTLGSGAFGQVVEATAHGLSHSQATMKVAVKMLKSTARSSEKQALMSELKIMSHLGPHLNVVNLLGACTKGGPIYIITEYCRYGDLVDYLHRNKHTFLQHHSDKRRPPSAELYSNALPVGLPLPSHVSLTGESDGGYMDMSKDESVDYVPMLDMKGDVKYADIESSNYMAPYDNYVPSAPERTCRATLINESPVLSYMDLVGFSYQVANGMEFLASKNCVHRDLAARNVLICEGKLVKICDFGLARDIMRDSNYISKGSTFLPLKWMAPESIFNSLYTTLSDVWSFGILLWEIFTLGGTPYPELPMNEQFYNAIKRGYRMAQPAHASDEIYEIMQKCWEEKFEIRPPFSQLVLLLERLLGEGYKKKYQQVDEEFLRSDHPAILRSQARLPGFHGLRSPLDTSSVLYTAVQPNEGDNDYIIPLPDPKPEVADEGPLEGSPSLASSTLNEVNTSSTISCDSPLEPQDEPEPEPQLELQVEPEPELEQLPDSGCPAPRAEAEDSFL

CHEK2 (human) = CHEK2 (human) (UniProt O96017)
SIK2 (human) = SIK2 (human) (UniProt Q9H0K1)
TYRO3 (human) = TYRO3 (human) (UniProt Q06418)
[1] = tested on: KIT (human), P10721 [V559D/V654A]
PIK3CA (human) = PIK3CA (human) (UniProt P42336)
NEK2 (human) = NEK2 (human) (UniProt P51955)
MAK (human) = MAK (human) (UniProt P20794)
Chain of MAK (human) (P20794 whole entry, looked up): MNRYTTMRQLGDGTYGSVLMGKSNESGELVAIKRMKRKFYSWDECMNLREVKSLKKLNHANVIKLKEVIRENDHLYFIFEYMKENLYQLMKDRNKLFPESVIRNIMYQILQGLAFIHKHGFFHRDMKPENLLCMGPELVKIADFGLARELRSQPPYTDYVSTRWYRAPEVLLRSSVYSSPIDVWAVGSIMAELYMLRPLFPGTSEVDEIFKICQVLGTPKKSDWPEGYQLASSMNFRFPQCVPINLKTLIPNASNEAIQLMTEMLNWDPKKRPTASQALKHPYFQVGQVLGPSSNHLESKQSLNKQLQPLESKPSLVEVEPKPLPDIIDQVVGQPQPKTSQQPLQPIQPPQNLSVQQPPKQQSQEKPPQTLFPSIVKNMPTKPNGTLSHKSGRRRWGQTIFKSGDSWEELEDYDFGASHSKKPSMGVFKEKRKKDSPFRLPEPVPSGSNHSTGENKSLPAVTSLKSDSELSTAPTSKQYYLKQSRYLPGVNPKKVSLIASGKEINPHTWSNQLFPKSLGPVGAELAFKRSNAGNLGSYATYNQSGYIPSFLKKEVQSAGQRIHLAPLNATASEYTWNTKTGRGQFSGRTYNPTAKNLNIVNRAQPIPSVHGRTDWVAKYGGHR

EPHA8 (human) = EPHA8 (human) (UniProt P29322)
AURKA (human) = AURKA (human) (UniProt O14965)
ACVR2A (human) = ACVR2A (human) (UniProt P27037)
LTK (human) = LTK (human) (UniProt P29376)
FGR (human) = FGR (human) (UniProt P09769)
GSK3A (human) = GSK3A (human) (UniProt P49840)
Chain of GSK3A (human) (P49840 whole entry, looked up): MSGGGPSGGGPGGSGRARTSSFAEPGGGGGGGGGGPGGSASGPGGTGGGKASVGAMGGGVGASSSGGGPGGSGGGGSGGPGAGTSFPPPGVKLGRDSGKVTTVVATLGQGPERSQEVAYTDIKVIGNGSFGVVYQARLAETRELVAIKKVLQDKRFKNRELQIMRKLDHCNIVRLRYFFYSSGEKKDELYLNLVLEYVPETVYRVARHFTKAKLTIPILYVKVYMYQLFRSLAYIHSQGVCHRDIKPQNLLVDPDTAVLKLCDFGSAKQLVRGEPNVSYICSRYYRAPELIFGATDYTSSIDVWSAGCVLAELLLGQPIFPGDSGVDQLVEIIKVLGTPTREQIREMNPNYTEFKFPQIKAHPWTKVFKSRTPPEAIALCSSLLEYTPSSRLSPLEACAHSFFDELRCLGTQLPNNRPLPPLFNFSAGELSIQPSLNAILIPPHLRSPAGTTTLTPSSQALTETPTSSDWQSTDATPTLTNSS

MAP3K13 (human) = MAP3K13 (human) (UniProt O43283)
TGFBR1 (human) = TGFBR1 (human) (UniProt P36897)
CDC2L2 (human) = CDC2L2 (human) (UniProt Q9UQ88)
MAP2K3 (human) = MAP2K3 (human) (UniProt P46734)
PLK3 (human) = PLK3 (human) (UniProt Q9H4B4)
CLK4 (human) = CLK4 (human) (UniProt Q9HAZ1)
MERTK (human) = MERTK (human) (UniProt Q12866)
ICK (human) = ICK (human) (UniProt Q9UPZ9)
MAPK11 (human) = MAPK11 (human) (UniProt Q15759)
LATS1 (human) = LATS1 (human) (UniProt O95835)
Chain of LATS1 (human) (O95835 whole entry, looked up): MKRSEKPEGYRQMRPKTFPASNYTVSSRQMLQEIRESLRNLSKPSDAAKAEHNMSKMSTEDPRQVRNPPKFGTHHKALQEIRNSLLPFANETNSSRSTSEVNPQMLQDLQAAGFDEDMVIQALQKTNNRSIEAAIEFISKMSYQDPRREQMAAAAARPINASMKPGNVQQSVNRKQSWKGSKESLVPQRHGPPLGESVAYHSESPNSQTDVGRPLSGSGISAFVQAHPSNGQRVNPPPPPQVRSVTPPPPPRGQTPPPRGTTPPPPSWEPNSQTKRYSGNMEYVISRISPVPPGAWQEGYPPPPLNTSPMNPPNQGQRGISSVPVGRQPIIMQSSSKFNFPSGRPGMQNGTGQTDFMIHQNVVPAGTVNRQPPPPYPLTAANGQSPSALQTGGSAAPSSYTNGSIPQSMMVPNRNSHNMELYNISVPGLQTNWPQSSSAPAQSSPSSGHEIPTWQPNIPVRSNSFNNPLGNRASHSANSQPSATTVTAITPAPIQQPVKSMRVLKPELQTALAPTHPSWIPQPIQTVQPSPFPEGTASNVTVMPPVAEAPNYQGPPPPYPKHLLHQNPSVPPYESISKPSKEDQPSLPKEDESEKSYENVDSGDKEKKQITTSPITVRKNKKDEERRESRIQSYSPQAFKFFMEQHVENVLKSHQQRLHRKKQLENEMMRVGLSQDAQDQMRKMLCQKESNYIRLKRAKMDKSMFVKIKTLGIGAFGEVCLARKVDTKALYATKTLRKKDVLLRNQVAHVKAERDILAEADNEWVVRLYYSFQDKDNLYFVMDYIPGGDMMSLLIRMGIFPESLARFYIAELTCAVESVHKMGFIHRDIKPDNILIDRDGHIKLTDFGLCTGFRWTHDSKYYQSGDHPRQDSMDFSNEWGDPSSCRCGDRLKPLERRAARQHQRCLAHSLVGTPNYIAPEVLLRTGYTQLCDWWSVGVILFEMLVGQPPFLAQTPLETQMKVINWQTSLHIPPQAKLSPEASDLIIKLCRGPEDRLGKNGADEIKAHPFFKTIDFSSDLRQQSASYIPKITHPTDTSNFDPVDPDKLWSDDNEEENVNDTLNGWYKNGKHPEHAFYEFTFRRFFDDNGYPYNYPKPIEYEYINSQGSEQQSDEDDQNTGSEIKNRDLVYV

RAF1 (human) = RAF1 (human) (UniProt P04049)
Chain of RAF1 (human) (P04049 whole entry, looked up): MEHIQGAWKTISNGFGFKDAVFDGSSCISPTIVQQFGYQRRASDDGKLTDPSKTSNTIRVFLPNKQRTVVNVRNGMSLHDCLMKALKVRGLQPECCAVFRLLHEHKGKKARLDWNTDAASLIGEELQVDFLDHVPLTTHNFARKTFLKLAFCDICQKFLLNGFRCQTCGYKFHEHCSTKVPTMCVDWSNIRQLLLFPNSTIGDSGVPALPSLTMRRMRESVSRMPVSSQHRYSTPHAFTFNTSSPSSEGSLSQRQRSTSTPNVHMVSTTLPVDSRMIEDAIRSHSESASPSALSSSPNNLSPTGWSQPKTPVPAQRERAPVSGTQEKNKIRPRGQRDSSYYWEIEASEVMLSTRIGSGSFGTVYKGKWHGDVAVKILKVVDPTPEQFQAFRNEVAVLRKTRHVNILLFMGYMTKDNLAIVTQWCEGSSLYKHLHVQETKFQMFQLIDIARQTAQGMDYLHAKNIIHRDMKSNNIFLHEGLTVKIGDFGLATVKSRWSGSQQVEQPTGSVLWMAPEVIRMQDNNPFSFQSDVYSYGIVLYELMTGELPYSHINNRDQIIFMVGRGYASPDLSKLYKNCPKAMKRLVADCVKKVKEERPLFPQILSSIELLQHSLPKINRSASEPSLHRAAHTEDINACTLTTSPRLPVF

RIOK1 (human) = RIOK1 (human) (UniProt Q9BRS2)
TNNI3K (human) = TNNI3K (human) (UniProt Q59H18)
Chain of TNNI3K (human) (Q59H18 whole entry, looked up): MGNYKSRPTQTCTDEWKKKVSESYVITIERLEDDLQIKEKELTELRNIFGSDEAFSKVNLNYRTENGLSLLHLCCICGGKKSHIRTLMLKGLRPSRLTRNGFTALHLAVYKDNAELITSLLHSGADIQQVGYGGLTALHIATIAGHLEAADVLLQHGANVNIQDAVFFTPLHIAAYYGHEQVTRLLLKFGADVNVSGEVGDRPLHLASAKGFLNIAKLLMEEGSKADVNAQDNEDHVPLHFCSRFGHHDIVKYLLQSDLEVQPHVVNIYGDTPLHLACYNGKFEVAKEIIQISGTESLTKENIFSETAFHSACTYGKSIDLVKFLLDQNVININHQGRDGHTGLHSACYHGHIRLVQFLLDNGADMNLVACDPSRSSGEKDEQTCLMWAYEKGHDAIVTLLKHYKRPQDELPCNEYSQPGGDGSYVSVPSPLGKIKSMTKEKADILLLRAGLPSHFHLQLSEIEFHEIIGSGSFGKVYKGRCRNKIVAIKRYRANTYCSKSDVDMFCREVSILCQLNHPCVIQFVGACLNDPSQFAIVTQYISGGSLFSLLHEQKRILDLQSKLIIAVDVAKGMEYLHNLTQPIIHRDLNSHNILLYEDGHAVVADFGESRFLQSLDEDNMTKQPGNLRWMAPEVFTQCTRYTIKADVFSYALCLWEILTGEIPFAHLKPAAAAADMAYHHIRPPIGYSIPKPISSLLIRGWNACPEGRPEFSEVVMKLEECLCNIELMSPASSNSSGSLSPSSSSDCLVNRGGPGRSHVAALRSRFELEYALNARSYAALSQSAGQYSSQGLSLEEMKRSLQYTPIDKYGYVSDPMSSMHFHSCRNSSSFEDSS

PRKCD (human) = PRKCD (human) (UniProt Q05655)
FGFR2 (human) = FGFR2 (human) (UniProt P21802)
CAMK2B (human) = CAMK2B (human) (UniProt Q13554)
PLK2 (human) = PLK2 (human) (UniProt Q9NYY3)

Compound: O=C(Nc1cccc(Nc2ncc(Br)c(NCCc3cnc[nH]3)n2)c1)N1CCCC1
- kinase still bound, per cent of control (PIP5K1A (human)): 1%
- kinase still bound, per cent of control (DYRK1B (human)): 35%
- kinase still bound, per cent of control (DSTYK (human)): 36%
- kinase still bound, per cent of control (MAPK15 (human)): 1.8%
- kinase still bound, per cent of control (CDK9 (human)): 66%
- kinase still bound, per cent of control (IRAK4 (human)): 0%
- kinase still bound, per cent of control (OXSR1 (human)): 25%
- kinase still bound, per cent of control (DDR1 (human)): 100%
- kinase still bound, per cent of control (WEE2 (human)): 36%
- kinase still bound, per cent of control (PDGFRB (human)): 0%
- kinase still bound, per cent of control (CHEK2 (human)): 24%
- kinase still bound, per cent of control (SIK2 (human)): 8%
- kinase still bound, per cent of control (TYRO3 (human)): 85%
- kinase still bound, per cent of control [1]: 15%
- kinase still bound, per cent of control (PIK3CA (human)): 100%
- kinase still bound, per cent of control (NEK2 (human)): 6.2%
- kinase still bound, per cent of control (MAK (human)): 100%
- kinase still bound, per cent of control (EPHA8 (human)): 94%
- kinase still bound, per cent of control (AURKA (human)): 1.6%
- kinase still bound, per cent of control (ACVR2A (human)): 6.4%
- kinase still bound, per cent of control (LTK (human)): 66%
- kinase still bound, per cent of control (FGR (human)): 13%
- kinase still bound, per cent of control (GSK3A (human)): 60%
- kinase still bound, per cent of control (MAP3K13 (human)): 9.9%
- kinase still bound, per cent of control (TGFBR1 (human)): 77%
- kinase still bound, per cent of control (CDC2L2 (human)): 52%
- kinase still bound, per cent of control (MAP2K3 (human)): 23%
- kinase still bound, per cent of control (PLK3 (human)): 20%
- kinase still bound, per cent of control (CLK4 (human)): 28%
- kinase still bound, per cent of control (MERTK (human)): 0.5%
- kinase still bound, per cent of control (ICK (human)): 10%
- kinase still bound, per cent of control (MAPK11 (human)): 90%
- kinase still bound, per cent of control (LATS1 (human)): 21%
- kinase still bound, per cent of control (RAF1 (human)): 100%
- kinase still bound, per cent of control (RIOK1 (human)): 0%
- kinase still bound, per cent of control (TNNI3K (human)): 28%
- kinase still bound, per cent of control (PRKCD (human)): 12%
- kinase still bound, per cent of control (FGFR2 (human)): 4.6%
- kinase still bound, per cent of control (CAMK2B (human)): 35%
- kinase still bound, per cent of control (PLK2 (human)): 11%

Compound: O=c1cc(N2CCOCC2)oc2c(-c3cccc4c3sc3ccccc34)cccc12
- kinase still bound, per cent of control (PIP5K1A (human)): 100%
- kinase still bound, per cent of control (DYRK1B (human)): 85%
- kinase still bound, per cent of control (DSTYK (human)): 99%
- kinase still bound, per cent of control (MAPK15 (human)): 100%
- kinase still bound, per cent of control (CDK9 (human)): 98%
- kinase still bound, per cent of control (IRAK4 (human)): 99%
- kinase still bound, per cent of control (OXSR1 (human)): 100%
- kinase still bound, per cent of control (DDR1 (human)): 100%
- kinase still bound, per cent of control (WEE2 (human)): 100%
- kinase still bound, per cent of control (PDGFRB (human)): 76%
- kinase still bound, per cent of control (CHEK2 (human)): 100%
- kinase still bound, per cent of control (SIK2 (human)): 75%
- kinase still bound, per cent of control (TYRO3 (human)): 100%
- kinase still bound, per cent of control [1]: 100%
- kinase still bound, per cent of control (PIK3CA (human)): 22%
- kinase still bound, per cent of control (NEK2 (human)): 96%
- kinase still bound, per cent of control (MAK (human)): 43%
- kinase still bound, per cent of control (EPHA8 (human)): 82%
- kinase still bound, per cent of control (AURKA (human)): 98%
- kinase still bound, per cent of control (ACVR2A (human)): 96%
- kinase still bound, per cent of control (LTK (human)): 93%
- kinase still bound, per cent of control (FGR (human)): 92%
- kinase still bound, per cent of control (GSK3A (human)): 78%
- kinase still bound, per cent of control (MAP3K13 (human)): 100%
- kinase still bound, per cent of control (TGFBR1 (human)): 100%
- kinase still bound, per cent of control (CDC2L2 (human)): 100%
- kinase still bound, per cent of control (MAP2K3 (human)): 91%
- kinase still bound, per cent of control (PLK3 (human)): 86%
- kinase still bound, per cent of control (CLK4 (human)): 95%
- kinase still bound, per cent of control (MERTK (human)): 100%
- kinase still bound, per cent of control (ICK (human)): 100%
- kinase still bound, per cent of control (MAPK11 (human)): 90%
- kinase still bound, per cent of control (LATS1 (human)): 100%
- kinase still bound, per cent of control (RAF1 (human)): 97%
- kinase still bound, per cent of control (RIOK1 (human)): 100%
- kinase still bound, per cent of control (TNNI3K (human)): 86%
- kinase still bound, per cent of control (PRKCD (human)): 80%
- kinase still bound, per cent of control (FGFR2 (human)): 82%
- kinase still bound, per cent of control (CAMK2B (human)): 80%
- kinase still bound, per cent of control (PLK2 (human)): 100%

Compound: CN(C)C/C=C/C(=O)Nc1ccc(C(=O)Nc2cccc(Nc3nccc(-c4cccnc4)n3)c2)cc1
- kinase still bound, per cent of control (PIP5K1A (human)): 34%
- kinase still bound, per cent of control (DYRK1B (human)): 24%
- kinase still bound, per cent of control (DSTYK (human)): 100%
- kinase still bound, per cent of control (MAPK15 (human)): 23%
- kinase still bound, per cent of control (CDK9 (human)): 90%
- kinase still bound, per cent of control (IRAK4 (human)): 34%
- kinase still bound, per cent of control (OXSR1 (human)): 100%
- kinase still bound, per cent of control (DDR1 (human)): 100%
- kinase still bound, per cent of control (WEE2 (human)): 100%
- kinase still bound, per cent of control (PDGFRB (human)): 3.6%
- kinase still bound, per cent of control (CHEK2 (human)): 86%
- kinase still bound, per cent of control (SIK2 (human)): 90%
- kinase still bound, per cent of control (TYRO3 (human)): 100%
- kinase still bound, per cent of control [1]: 56%
- kinase still bound, per cent of control (PIK3CA (human)): 100%
- kinase still bound, per cent of control (NEK2 (human)): 1.1%
- kinase still bound, per cent of control (MAK (human)): 100%
- kinase still bound, per cent of control (EPHA8 (human)): 91%
- kinase still bound, per cent of control (AURKA (human)): 11%
- kinase still bound, per cent of control (ACVR2A (human)): 53%
- kinase still bound, per cent of control (LTK (human)): 100%
- kinase still bound, per cent of control (FGR (human)): 86%
- kinase still bound, per cent of control (GSK3A (human)): 26%
- kinase still bound, per cent of control (MAP3K13 (human)): 100%
- kinase still bound, per cent of control (TGFBR1 (human)): 100%
- kinase still bound, per cent of control (CDC2L2 (human)): 100%
- kinase still bound, per cent of control (MAP2K3 (human)): 24%
- kinase still bound, per cent of control (PLK3 (human)): 35%
- kinase still bound, per cent of control (CLK4 (human)): 2.2%
- kinase still bound, per cent of control (MERTK (human)): 100%
- kinase still bound, per cent of control (ICK (human)): 62%
- kinase still bound, per cent of control (MAPK11 (human)): 88%
- kinase still bound, per cent of control (LATS1 (human)): 100%
- kinase still bound, per cent of control (RAF1 (human)): 100%
- kinase still bound, per cent of control (RIOK1 (human)): 10%
- kinase still bound, per cent of control (TNNI3K (human)): 100%
- kinase still bound, per cent of control (PRKCD (human)): 100%
- kinase still bound, per cent of control (FGFR2 (human)): 86%
- kinase still bound, per cent of control (CAMK2B (human)): 60%
- kinase still bound, per cent of control (PLK2 (human)): 81%
